Key:
Assay type in all cases: in vivo
[1] = tested on: Monocotyledonous and dicotyledonous weed; test: Post-emergence test experiment, weed control effect (Table 2); parameters: key to weed control effect, Setaria viridis (level) / weed control effect, Rorippa indica (level) / weed control effect, Abutilon theophrasti (level) / weed control effect, Echinochloa crus-galli (level) / weed control effect, Digitaria sanguinalis (level): Level 10: completely dead; Level 9: above 90% growth inhibition rate; Level 8: above 80% growth inhibition rate; Level 7: above 70% growth inhibition rate; Level 6: above 60% growth inhibition rate; Level 5: above 50% growth inhibition rate; Level 4: above 30% growth inhibition rate; Level 3: above 20% growth inhibition rate; Level 2: above 10% growth inhibition rate; Level 1: above 1-10% growth inhibition rate; Level 0: no effect; conditions: 3 weeks after spraying, greenhouse
Summary of the method: (§1)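 Compounds, dissolved in acetone, mixed with Tween 80 and diluted in water, were sprayed post-emergence onto greenhouse-grown weeds and crops at the 2-3 leaf stage (2-3 weeks post-sowing). Plants then grown 3 more weeks in the greenhouse before evaluation.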

[2] = tested on: main crop (wheat, corn, rice, soybean, cotton, oilseed, millet and sorghum); test: Post-emergence test experiment, main crops (Table 2); parameters: key: Level 10: completely dead; Level 9: above 90% growth inhibition rate; Level 8: above 80% growth inhibition rate; Level 7: above 70% growth inhibition rate; Level 6: above 60% growth inhibition rate; Level 5: above 50% growth inhibition rate; Level 4: above 30% growth inhibition rate; Level 3: above 20% growth inhibition rate; Level 2: above 10% growth inhibition rate; Level 1: above 1-10% growth inhibition rate; Level 0: no effect; conditions: 3 weeks after spraying, greenhouse
Summary of the method: as §1

[3] = tested on: Echinochloa crus-galli; test: Weed control effect evaluation in transplanted rice field; parameters: key: Level 10: completely dead; Level 9: above 90% growth inhibition rate; Level 8: above 80% growth inhibition rate; Level 7: above 70% growth inhibition rate; Level 6: above 60% growth inhibition rate; Level 5: above 50% growth inhibition rate; Level 4: above 30% growth inhibition rate; Level 3: above 20% growth inhibition rate; Level 2: above 10% growth inhibition rate; Level 1: above 1-10% growth inhibition rate; Level 0: no effect; conditions: transplanted rice field pot test, 14 days after treatment
Description: (§2) Rice field soil was loaded into a 1/1,000,000 ha pot. The seeds of Echinochloa, Scirpus juncoides, Bidens tripartite and Sagittaria trifolia were sowed and gently covered with soil, then left to stand still in greenhouse in the state of 0.5-1 cm of water storage. The tuber of Sagittaria trifolia was planted in the next day or 2 days later. It was kept at 3-4 cm of water storage thereafter. The weeds were treated by dripping the WP or SC water diluents prepared according to the common preparation method of the compounds of the present invention with pipette homogeneously to achieve specified effective amount when Echinochloa, Scirpus juncoides and Bidens tripartite reached 0.5 leaf stage and Sagittaria trifolia reached the time point of primary leaf stage.
(§3) The fertility condition of Echinochloa, Scirpus juncoides, Bidens tripartite and Sagittaria trifolia 14 days after the treatment of the compound of the invention and the fertility condition of rice 21 days after the treatment of the compound of the invention respectively with the naked eye.
(§4) The seeds of Echinochloa crus-galli, Scirpus juncoides and Monochoria vaginalis were collected from Heilongjing and Jiangsu Province of China.

[4] = tested on: Monochoria vaginalis; test: as above; parameters: key: Level 10: completely dead; Level 9: above 90% growth inhibition rate; Level 8: above 80% growth inhibition rate; Level 7: above 70% growth inhibition rate; Level 6: above 60% growth inhibition rate; Level 5: above 50% growth inhibition rate; Level 4: above 30% growth inhibition rate; Level 3: above 20% growth inhibition rate; Level 2: above 10% growth inhibition rate; Level 1: above 1-10% growth inhibition rate; Level 0: no effect; conditions: transplanted rice field pot test, 14 days after treatment
Description: as §2, §3, §4

[5] = tested on: Scirpus juncoides; test: as above; parameters: key: Level 10: completely dead; Level 9: above 90% growth inhibition rate; Level 8: above 80% growth inhibition rate; Level 7: above 70% growth inhibition rate; Level 6: above 60% growth inhibition rate; Level 5: above 50% growth inhibition rate; Level 4: above 30% growth inhibition rate; Level 3: above 20% growth inhibition rate; Level 2: above 10% growth inhibition rate; Level 1: above 1-10% growth inhibition rate; Level 0: no effect; conditions: transplanted rice field pot test, 14 days after treatment
Description: as §2, §3, §4

[6] = tested on: Rice; test: Transplanted rice safety evaluation; parameters: key: Level 10: completely dead; Level 9: above 90% growth inhibition rate; Level 8: above 80% growth inhibition rate; Level 7: above 70% growth inhibition rate; Level 6: above 60% growth inhibition rate; Level 5: above 50% growth inhibition rate; Level 4: above 30% growth inhibition rate; Level 3: above 20% growth inhibition rate; Level 2: above 10% growth inhibition rate; Level 1: above 1-10% growth inhibition rate; Level 0: no effect; conditions: transplanted 3 leaf stage japonica rice, 21 days after treatment
Description: In addition, the rice field soil that loaded into the 1/1,000,000 ha pot was leveled to keep water storage at 3-4 cm depth. The 3 leaf stage rice (japonica rice) was transplanted at 3 cm of transplanting depth the next day. The compound of the present invention was treated by the same way after 5 days of transplantation. The fertility condition of Echinochloa, Scirpus juncoides, Bidens tripartite and Sagittaria trifolia 14 days after the treatment of the compound of the invention and the fertility condition of rice 21 days after the treatment of the compound of the invention respectively with the naked eye.

SMILES: Cc1ccn(Cc2c(S(C)(=O)=O)ccc(C(=O)c3c(C)nn(C)c3OC(=O)c3cn(C)nc3C)c2Cl)n1 [Compound 02]
- weed control effect, Abutilon theophrasti (level) ([1]; 120 g/ha): 8 (Level 8: above 80% growth inhibition rate)
- weed control effect, Bidens pilosa (level) ([1]; 120 g/ha): 9 (Level 9: above 90% growth inhibition rate)
- weed control effect, Digitaria sanguinalis (level) ([1]; 120 g/ha): 2 (Level 2: above 10% growth inhibition rate)
- weed control effect, Echinochloa crus-galli (level) ([1]; 120 g/ha): 10
- weed control effect, Rorippa indica (level) ([1]; 120 g/ha): 10
- weed control effect, Setaria viridis (level) ([1]; 120 g/ha): 6 (Level 6: above 60% growth inhibition rate)
- effect on crop, corn (level) ([2]; 120 g/ha): 0
- effect on crop, rice (level) ([2]; 120 g/ha): 1 (Level 1: above 1-10% growth inhibition rate)
- effect on crop, wheat (level) ([2]; 120 g/ha): 0
- Weed control effect, Echinochloa crus-galli (activity level) ([3]; application rate 500 g/ha): 10
- Weed control effect, Monochoria vaginalis (activity level) ([4]; application rate 500 g/ha): 9 (Level 9: above 90% growth inhibition rate)
- Weed control effect, Scirpus juncoides (activity level) ([5]; application rate 500 g/ha): 10
- Rice (safety, activity level) ([6]; application rate 500 g/ha): 0

SMILES: CCOCCOCc1c(S(C)(=O)=O)ccc(C(=O)c2cnn(C)c2OC(=O)c2cnn(C)c2)c1Cl [Compound 68]
- weed control effect, Abutilon theophrasti (level) ([1]; 30 g/ha): 7 (Level 7: above 70% growth inhibition rate)
- weed control effect, Bidens pilosa (level) ([1]; 30 g/ha): 7 (Level 7: above 70% growth inhibition rate)
- weed control effect, Digitaria sanguinalis (level) ([1]; 30 g/ha): 7 (Level 7: above 70% growth inhibition rate)
- weed control effect, Echinochloa crus-galli (level) ([1]; 30 g/ha): 10
- weed control effect, Rorippa indica (level) ([1]; 30 g/ha): 10
- weed control effect, Setaria viridis (level) ([1]; 30 g/ha): 9 (Level 9: above 90% growth inhibition rate)
- effect on crop, corn (level) ([2]; 30 g/ha): 0
- effect on crop, rice (level) ([2]; 30 g/ha): 3 (Level 3: above 20% growth inhibition rate)
- effect on crop, wheat (level) ([2]; 30 g/ha): 0
- Weed control effect, Echinochloa crus-galli (activity level) ([3]; application rate 60 g/ha): 7 (Level 7: above 70% growth inhibition rate)
- Weed control effect, Monochoria vaginalis (activity level) ([4]; application rate 60 g/ha): 10
- Weed control effect, Scirpus juncoides (activity level) ([5]; application rate 60 g/ha): 10
- Rice (safety, activity level) ([6]; application rate 60 g/ha): 1 (Level 1: above 1-10% growth inhibition rate)

SMILES: CCn1nc(C2CC2)c(C(=O)c2ccc(S(C)(=O)=O)c(COCC(F)F)c2Cl)c1OC(=O)c1cn(C)nc1C [Compound 90]
- weed control effect, Abutilon theophrasti (level) ([1]; 30 g/ha): 7 (Level 7: above 70% growth inhibition rate)
- weed control effect, Bidens pilosa (level) ([1]; 30 g/ha): 7 (Level 7: above 70% growth inhibition rate)
- weed control effect, Digitaria sanguinalis (level) ([1]; 30 g/ha): 10
- weed control effect, Echinochloa crus-galli (level) ([1]; 30 g/ha): 10
- weed control effect, Rorippa indica (level) ([1]; 30 g/ha): 10
- weed control effect, Setaria viridis (level) ([1]; 30 g/ha): 10
- effect on crop, corn (level) ([2]; 30 g/ha): 1 (Level 1: above 1-10% growth inhibition rate)
- effect on crop, rice (level) ([2]; 30 g/ha): 3 (Level 3: above 20% growth inhibition rate)
- effect on crop, wheat (level) ([2]; 30 g/ha): 0
- Weed control effect, Echinochloa crus-galli (activity level) ([3]; application rate 60 g/ha): 10
- Weed control effect, Monochoria vaginalis (activity level) ([4]; application rate 60 g/ha): 10
- Weed control effect, Scirpus juncoides (activity level) ([5]; application rate 60 g/ha): 10
- Rice (safety, activity level) ([6]; application rate 60 g/ha): 0

SMILES: COCc1c(S(C)(=O)=O)ccc(C(=O)c2c(C3CC3)nn(C)c2OC(=O)c2cn(C)nc2C)c1Cl [Compound 51]
- weed control effect, Abutilon theophrasti (level) ([1]; 30 g/ha): 7 (Level 7: above 70% growth inhibition rate)
- weed control effect, Bidens pilosa (level) ([1]; 30 g/ha): 7 (Level 7: above 70% growth inhibition rate)
- weed control effect, Digitaria sanguinalis (level) ([1]; 30 g/ha): 10
- weed control effect, Echinochloa crus-galli (level) ([1]; 30 g/ha): 10
- weed control effect, Rorippa indica (level) ([1]; 30 g/ha): 10
- weed control effect, Setaria viridis (level) ([1]; 30 g/ha): 10
- effect on crop, corn (level) ([2]; 30 g/ha): 4 (Level 4: above 30% growth inhibition rate)
- effect on crop, rice (level) ([2]; 30 g/ha): 3 (Level 3: above 20% growth inhibition rate)
- effect on crop, wheat (level) ([2]; 30 g/ha): 0
- Weed control effect, Echinochloa crus-galli (activity level) ([3]; application rate 60 g/ha): 10
- Weed control effect, Monochoria vaginalis (activity level) ([4]; application rate 60 g/ha): 10
- Weed control effect, Scirpus juncoides (activity level) ([5]; application rate 60 g/ha): 9 (Level 9: above 90% growth inhibition rate)
- Rice (safety, activity level) ([6]; application rate 60 g/ha): 0

Source: US10556888B2, “Pyrazole compounds or salts thereof, preparation methods therefor, herbicidal compositions and use thereof” (QINGDAO KINGAGROOT CHEMICAL COMPOUNDS CO., LTD, priority 2015, dated 2020)
